Experimental data: patent US5603943A, “Nasally administrable compositions” (Dott Research Laboratory, priority 1994, dated 1997)
Several values for one entry are separate records, joined by “and”; a condition that tells them apart may be missing. Equal values may be shown once.

Columns and labels:
[1] = Glucagon blood concentration, nasal powder with hydroxyapatite (Test Example 8); assay type: in vivo, healthy male adults (human)
Protocol: A nasally administrable composition in powdery form was prepared by formulating glucagon (from hog spleen) as a physiologically active peptide at the rate of 40 mg per composition (1,000 mg) with hydroxyapatite as a carrier having a mean particle size ranging from 40 to 45 μm.
The resulting composition was nasally administered once at a dose of 1.2 glucagon unit/30 mg to three healthy male adults and the blood (2.5 ml) was collected from each of the tested adults prior to administration and then at 5, 10, 15, 20, 30, 45, 60, 90, 120, 150 and 180 minutes after administration. The concentration of the glucagon in each of the collected blood samples was assayed with a standard RIA assay kit.

[2] = Glucagon blood concentration, nasal powder with calcium carbonate (Test Example 9); assay type: in vivo, healthy male adults (human); details: for Concentration of glucagon in the blood: nasal 1.2 glucagon unit/30 mg, individual cases No. 21-24 in order
Protocol: (§1) A nasally administrable composition in powdery form was prepared by formulating glucagon (from hog spleen) as a physiologically active peptide at the rate of 40 mg per composition (1,000 mg) with calcium carbonate as a carrier having a mean particle size ranging from 40 to 45 μm.
[…] The concentration of the glucagon in each of the collected blood samples was assayed with a standard RIA assay kit.

[3] = Glucagon blood concentration, nasal powder with calcium carbonate, two doses (Test Example 12); assay type: in vivo, healthy male adults (human)
Protocol: as §1
The resulting composition was nasally administered once at a dose of 0.4 glucagon unit/30 mg to two healthy male adults and 2 glucagon unit/30 mg to another two healthy male adults, and the blood (2.5 ml) was collected from each of the tested adults prior to administration and then at 5, 10, 15, 20, 30, 45, 60, 90, 120, 150 and 180 minutes after administration. The concentration of the glucagon in each of the collected blood samples was assayed with a standard RIA assay kit.

[4] = Nasal absorption, clinical effect and irritation (general statement); assay type: in vivo; details: powder in specific carrier, nasal route

glucagon
absorption through nasal route [1]: high extent of absorption
Concentration of glucagon in the blood ([1]; 0 min (predose), nasal 1.2 glucagon unit/30 mg, individual cases No. 17-20 in order): 0.051 ng/mL and 0.046 ng/mL and 0.036 ng/mL and 0.068 ng/mL
absorption through nasal route [2]: high extent of absorption
Concentration of glucagon in the blood ([2]; 0 min (predose)): 0.034 ng/mL and 0.056 ng/mL and 0.042 ng/mL and 0.048 ng/mL
Concentration of glucagon in the blood ([2]; 5 min): 0.073 ng/mL and 0.079 ng/mL and 0.08 ng/mL and 0.053 ng/mL
Concentration of glucagon in the blood ([2]; 10 min): 0.097 ng/mL and 0.091 ng/mL and 0.08 ng/mL and 0.044 ng/mL
Concentration of glucagon in the blood ([2]; 15 min): 0.086 ng/mL and 0.079 ng/mL and 0.083 ng/mL and 0.053 ng/mL
Concentration of glucagon in the blood ([2]; 20 min): 0.085 ng/mL and 0.089 ng/mL and 0.082 ng/mL and 0.05 ng/mL
Concentration of glucagon in the blood ([2]; 30 min): 0.071 ng/mL and 0.077 ng/mL and 0.09 ng/mL and 0.055 ng/mL
Concentration of glucagon in the blood ([2]; 45 min): 0.073 ng/mL and 0.089 ng/mL and 0.076 ng/mL and 0.049 ng/mL
Concentration of glucagon in the blood ([2]; 60 min): 0.064 ng/mL and 0.079 ng/mL and 0.077 ng/mL and 0.046 ng/mL
Concentration of glucagon in the blood ([2]; 90 min): 0.062 ng/mL and 0.078 ng/mL and 0.073 ng/mL and 0.047 ng/mL
Concentration of glucagon in the blood ([2]; 120 min): 0.056 ng/mL and 0.079 ng/mL and 0.088 ng/mL and 0.046 ng/mL
Concentration of glucagon in the blood ([2]; 150 min): 0.052 ng/mL and 0.067 ng/mL and 0.079 ng/mL and 0.054 ng/mL
Concentration of glucagon in the blood ([2]; 180 min): 0.051 ng/mL and 0.066 ng/mL and 0.062 ng/mL and 0.05 ng/mL
Concentration of glucagon in the blood ([3]; 0 min (predose), nasal 0.4 glucagon unit/30 mg, individual cases No. 33-34 in order): 0.112 ng/mL and 0.06 ng/mL
Concentration of glucagon in the blood ([3]; 0 min (predose), nasal 2 glucagon unit/30 mg, individual cases No. 35-36 in order): 0.053 ng/mL and 0.097 ng/mL
absorption through nasal route ([3]; 0.4 and 2 glucagon unit): high extent of absorption
Concentration of glucagon in the blood ([3]; 5 min, nasal 0.4 glucagon unit/30 mg, individual cases No. 33-34 in order): 0.115 ng/mL and 0.065 ng/mL
Concentration of glucagon in the blood ([3]; 5 min, nasal 2 glucagon unit/30 mg, individual cases No. 35-36 in order): 0.076 ng/mL and 0.109 ng/mL
Concentration of glucagon in the blood ([3]; 10 min, nasal 0.4 glucagon unit/30 mg, individual cases No. 33-34 in order): 0.119 ng/mL and 0.077 ng/mL
Concentration of glucagon in the blood ([3]; 10 min, nasal 2 glucagon unit/30 mg, individual cases No. 35-36 in order): 0.116 ng/mL and 0.104 ng/mL
Concentration of glucagon in the blood ([3]; 15 min, nasal 0.4 glucagon unit/30 mg, individual cases No. 33-34 in order): 0.13 ng/mL and 0.072 ng/mL
Concentration of glucagon in the blood ([3]; 15 min, nasal 2 glucagon unit/30 mg, individual cases No. 35-36 in order): 0.085 ng/mL and 0.096 ng/mL
Concentration of glucagon in the blood ([3]; 20 min, nasal 0.4 glucagon unit/30 mg, individual cases No. 33-34 in order): 0.127 ng/mL and 0.079 ng/mL
Concentration of glucagon in the blood ([3]; 20 min, nasal 2 glucagon unit/30 mg, individual cases No. 35-36 in order): 0.102 ng/mL and 0.118 ng/mL
Concentration of glucagon in the blood ([3]; 30 min, nasal 0.4 glucagon unit/30 mg, individual cases No. 33-34 in order): 0.116 ng/mL and 0.086 ng/mL
Concentration of glucagon in the blood ([3]; 30 min, nasal 2 glucagon unit/30 mg, individual cases No. 35-36 in order): 0.056 ng/mL and 0.1 ng/mL
Concentration of glucagon in the blood ([3]; 45 min, nasal 0.4 glucagon unit/30 mg, individual cases No. 33-34 in order): 0.121 ng/mL and 0.075 ng/mL
Concentration of glucagon in the blood ([3]; 45 min, nasal 2 glucagon unit/30 mg, individual cases No. 35-36 in order): 0.094 ng/mL and 0.105 ng/mL
Concentration of glucagon in the blood ([3]; 60 min, nasal 0.4 glucagon unit/30 mg, individual cases No. 33-34 in order): 0.137 ng/mL and 0.061 ng/mL
Concentration of glucagon in the blood ([3]; 60 min, nasal 2 glucagon unit/30 mg, individual cases No. 35-36 in order): 0.079 ng/mL and 0.122 ng/mL
Concentration of glucagon in the blood ([3]; 90 min, nasal 0.4 glucagon unit/30 mg, individual cases No. 33-34 in order): 0.122 ng/mL and 0.066 ng/mL
Concentration of glucagon in the blood ([3]; 90 min, nasal 2 glucagon unit/30 mg, individual cases No. 35-36 in order): 0.06 ng/mL and 0.117 ng/mL
Concentration of glucagon in the blood ([3]; 120 min, nasal 0.4 glucagon unit/30 mg, individual cases No. 33-34 in order): 0.108 ng/mL and 0.057 ng/mL
Concentration of glucagon in the blood ([3]; 120 min, nasal 2 glucagon unit/30 mg, individual cases No. 35-36 in order): 0.069 ng/mL and 0.099 ng/mL
Concentration of glucagon in the blood ([3]; 150 min, nasal 0.4 glucagon unit/30 mg, individual cases No. 33-34 in order): 0.111 ng/mL and 0.076 ng/mL
Concentration of glucagon in the blood ([3]; 150 min, nasal 2 glucagon unit/30 mg, individual cases No. 35-36 in order): 0.069 ng/mL and 0.106 ng/mL
Concentration of glucagon in the blood ([3]; 180 min, nasal 0.4 glucagon unit/30 mg, individual cases No. 33-34 in order): 0.11 ng/mL and 0.074 ng/mL
Concentration of glucagon in the blood ([3]; 180 min, nasal 2 glucagon unit/30 mg, individual cases No. 35-36 in order): 0.06 ng/mL and 0.105 ng/mL
absorption into the body [4]: well absorbed into the body
clinical effects [4]: high clinical effects
